Data: patent US20130252886A1, “METHODS OF DELAYING AND TREATING DIABETES” (priority 2010, published 2013)
“Also recorded” adds a separate entry of the source.

Assays:
Format in all cases: in vivo
[1] = tested on: Female NOD mice (NOD/ShiLtJ, Taconic); assay: Insulin requirement and blood glucose in diabetic NOD mice, GABA vs lysine controls (Example 6)
Experimental: Female NOD mice (NOD/ShiLtJ, Taconic) were housed in accordance with NIH Animal Use and Welfare guidelines with 12 hour light-dark cycle beginning at 9 weeks of age. The animals were fed a standard rodent diet ad lib. Blood glucose was measured weekly using a Freestyle glucometer, and then twice daily once it was determined they had diabetes.
Mice were considered diabetic if a single non-fasting blood glucose measurement was […]. For about eight weeks before the mice became diabetic, their average fasting blood glucose was 102 mg/dl. Once diabetic, blood glucose levels were measured twice daily, approximately eight hours apart. All of the mice received insulin subcutaneously twice daily and the dosage was adjusted as needed. Three diabetic mice were randomly designated as controls and were given the amino acid lysine (8 mg/kg) orally (PO) twice a day before the administration of insulin.

[2] = tested on: NOD mouse pancreas; assay: Pancreas histology of NOD mice
Experimental: NOD mice, as previously described in Examples 1-4, supra, were anesthetized with an intraperitoneal injection of 75 mg/kg pentobarbital (Nembutol). When mice were unresponsive to painful stimuli, the pancreas was surgically removed and placed in 10% neutral buffered formalin. Mice were then euthanized by exsanguination. The paraffin blocks of fixed pancreas were processed by automation and 5 micron sections were prepared from three levels for automated hematoxylin and eosin staining followed by aldehyde fuchsin stain for insulin. The histology slides were prepared and stained at Jackson Laboratory, Bar Harbor, Me.

[3] = Average body weight / lean body mass of NOD mice; details: 30 mg/kg GABA and/or 0.4 U insulin groups
Excerpt: FIGS. 3 and 4 show the average weight for the NOD mice in each group during the course of the experiment. The x-axis (age of mouse in weeks) corresponds to both the delayed onset and treatment regimens, depending on when the diagnosis of diabetes was made.

[4] = tested on: female NOD mice; assay: Diabetes prevention/delayed onset study, fasting blood glucose
Excerpt: Normally, ninety to one hundred percent of female NOD mice, available, for example, from Jackson Laboratory, develop diabetes by 30 weeks of age. Two treatments were designed to study delaying the onset of diabetes and diabetes intervention in NOD mice. The first examined therapies in NOD mice beginning at 8 weeks of age to delay the onset of diabetes onset.
In the diabetes prevention/delayed onset study, mice were divided into five groups. […] Group 3 received 0.4 units insulin subcutaneously just prior to consuming food.
Female NOD mice (Jackson Laboratory) were allowed to access food ad lib overnight. A 12 hour light-dark cycle was maintained and mice were housed in accordance with the NIH Animal Care and Use guidelines. Food was removed for eight hours during the day and the fasting blood glucose was tested daily at the end of the eight hour fast.
The control group received vegetable oil to the fur without anything else. […] The insulin only group was given 0.4 units insulin (SQ) just before feeding.
Diabetes was defined as a fasting blood glucose ≧200 mg/dl on three consecutive days. The average of the fasting blood glucose over the three days was included in the calculation of the average for each group in the prevention data (see Table 1 and FIG. 1).

[5] = tested on: insulin-dependent dogs; assay: Clinical trial of oral GABA in naturally-occurring insulin-dependent dogs: blood glucose, fructosamine
Experimental: These companion dogs were housed in homes, mimicking the lifestyle of diabetic humans. Based on published estimates, approximately 50% of these animals had insulitis, while others have had pancreatitis.
The GABA was diluted in water and the owner administers it orally (PO QD) as a bolus just before feeding. […] Once randomized on day 120, all investigators were blinded as to treatment.
As previously described in Example 5, supra, the 8 month clinical canine trial in collaboration with Purdue University was completed. Naturally-occurring diabetic dogs were housed in homes and were insulin dependent when they began the study. FIGS. 18 and 19 show the mean 10 hour fasting blood glucose (mg/dl) and mean C-peptide (ng/ml/kg) in these insulin-dependent dogs, respectively.
FIG. 18 is a graph of the mean blood glucose in the seven dogs measured during a ten hour window. On a measurement day, the dogs were fed and given insulin. Blood glucose was then monitored at ˜8:00 AM and for every two hours until ˜6:00 PM. The mean of these values was taken and plotted in FIG. 18.
On day 0, the mean 10 hr glucose was 310 mg/dl. From day 0 to day 60, the dogs were treated with insulin only. […] The mean blood glucose over the 10 hour measurement period dropped to 209 mg/dl by the last visit, a 33% overall improvement without a significant change in the average insulin dosage.

[6] = tested on: insulin-dependent dogs; assay: Stimulated C-peptide in insulin-dependent dogs (radioimmunoassay); details: oral GABA 30, 60, 90 mg/kg, seven dogs
Excerpt: C-peptide was monitored as a way to determine the amount of endogenous insulin synthesized and secreted in these diabetic dogs. Endogenous insulin is first biosynthesized as linked A, B and C peptides. The C-peptide is removed and circulates in the blood stream. The active insulin molecule is linked A & B peptide only. Since diabetic patients administering insulin injections receive exogenous A & B peptide, the measurement of C-peptide can determine of how much endogenous insulin is produced by the individual's pancreas.
In this study stimulated C-peptide was measured every two months. On the day of C-peptide measurements, blood was drawn at time 0 and the dog was fed stimulating C-peptide release. No exogenous insulin was given by injection to avoid suppressing endogenous insulin secretion. Blood was drawn again at 60, 90, 120 and 240 minutes. […] C-peptide was plotted as area under the curve measurements. The values for the placebo treatment have been grouped and represent all seven dogs.

[7] = tested on: diabetic female NOD mice; assay: Diabetes treatment protocol in diabetic NOD mice (GABA before insulin, BID)
Excerpt: Once the NOD mice became diabetic, they were shifted from the prevention/delayed onset regimen into the treatment protocol. […] The first dose of GABA was given just after removing the food from the cage and a second dose was given approximately eight hours later, just before feeding. […] Two NOD mice were maintained on insulin when they became diabetic, to serve as controls.
The first dose of GABA was given just after removing the food from the cage and a second dose was given approximately eight hours later, just before feeding. The insulin dose administered was based on each mouse's blood glucose level.
Female non-obese diabetic (NOD) mice (Jackson Laboratory) were used to study GABA treatment efficacy. Diabetes normally occurs in 90-100% of these mice by 30 weeks and they develop the insulitis and hypoinsulinemia that characterizes Type 1 diabetes in humans. Mice were housed in accordance with NIH Animal Use and Welfare guidelines with 12 hour light-dark cycle beginning at 8 weeks of age. Animals were fed a standard rodent diet ad lib overnight followed by removal of food from the cage for an 8 hour fast. Before and after the eight hour fast, blood glucose was measured weekly using a Freestyle Glucometer and then daily once mice were determined to be diabetic. Mice were considered diabetic if at the end of the 8 hours fast, on three consecutive days, glucose measurements were ≧200 mg/dl. Onset of diabetes usually began to occur when the mice were 12 weeks of age.

[8] = Pharmacokinetics: plasma GABA concentration in diabetic dogs (LC/MS)
Experimental: Plasma GABA measurements were made by liquid chromatography/mass spectroscopy. Blood was drawn at 0, 60, 90, 120 and 240 minutes and plotted as area under the curve. These samples were drawn after a meal but in the absence of exogenous insulin administration, as previously described for C-peptide measurements. Blood samples were drawn and divided into serum separation or plasma separation tubes for C-peptide and pharmacokinetics studies respectively.
This bell shaped response mimics what is seen in dose-response curves with GABA in vitro.

[9] = 13 weeks of age, treatment just before feeding (30 mg/kg GABA PO and/or 0.4 U insulin SQ)
[10] = 19 weeks of age, treatment just before feeding
[11] = 21 weeks of age, treatment just before feeding
[12] = 22 weeks of age, treatment just before feeding
[13] = 24 weeks of age, treatment just before feeding
[14] = 26 weeks of age, treatment just before feeding

With `NCCCC[C@H](N)C(=O)O` [lysine, reference compound] as the compound, how does the insulin requirements ([1]; range over the 9 week study period, GABA 60 or 90 mg/kg or lysine 8 mg/kg PO BID before insulin) read?
The insulin requirements was 0.030-0.047 units/day.

What does the source list for `NCCCC(=O)O` [GABA, γ-aminobutyric acid]?
pancreatic histology, islets and inflammation ([2]; mouse that remained on GABA (and insulin) until sacrifice, FIG. 15): regenerated islets and little to no inflammation; pancreatic histology after stopping GABA treatment ([2]; mouse weaned off insulin, sacrificed at 64 weeks, FIG. 14): causes the inflammation to return to the pancreas; average weight / lean body mass ([3]; FIGS. 3 and 4, 30 mg/kg): maintained the lowest weights; also recorded: maintains lean body mass; Average Fasting Blood Glucose ([4]; 13 weeks of age, Group 5 fasting GABA, 30 mg/kg 2 hours before feeding): 86 mg/dL; Average Fasting Blood Glucose [4, 9]: 80 mg/dL; Average Fasting Blood Glucose ([4]; 15 weeks of age, Group 5 fasting GABA, 30 mg/kg 2 hours before feeding): 97 mg/dL; Average Fasting Blood Glucose ([4]; 17 weeks of age, Group 5 fasting GABA, 30 mg/kg 2 hours before feeding): 100 mg/dL; Average Fasting Blood Glucose ([4]; 19 weeks of age, Group 5 fasting GABA, 30 mg/kg 2 hours before feeding): 172 mg/dL; Average Fasting Blood Glucose [4, 10]: 127 mg/dL; Average Fasting Blood Glucose ([4]; 21 weeks of age, Group 5 fasting GABA, 30 mg/kg 2 hours before feeding): 239 mg/dL; Average Fasting Blood Glucose [4, 11]: 138 mg/dL; mice alive and diabetes free ([4]; 22 weeks of age, Group 2, 30 mg/kg GABA PO just before feeding (4/4 mice)): 100%; mice that became diabetic ([4]; 22 weeks of age, Group 5, 30 mg/kg GABA under fasting conditions): 50%; Average Fasting Blood Glucose ([4]; 22 weeks of age, Group 5 fasting GABA, 30 mg/kg 2 hours before feeding): 266 mg/dL; Average Fasting Blood Glucose [4, 12]: 173 mg/dL; Average Fasting Blood Glucose ([4]; 24 weeks of age, Group 5 fasting GABA, 30 mg/kg 2 hours before feeding): 265 mg/dL; Average Fasting Blood Glucose [4, 13]: 152 mg/dL; average fasting blood glucose compared with other treatment groups [4, 13]: significantly lower; average fasting blood glucose compared with other groups ([4]; 24 weeks, Group 5, 30 mg/kg GABA under fasting conditions): significantly higher; Average Fasting Blood Glucose ([4]; 26 weeks of age, Group 5 fasting GABA, 30 mg/kg 2 hours before feeding): 226 mg/dL; Average Fasting Blood Glucose [4, 14]: 253 mg/dL; prevention / delay of diabetes onset ([4]; Group 2, 30 mg/kg GABA just before feeding): delayed the longest; also recorded: most successful prevention treatment; effectiveness of prevention treatment ([4]; Group 5, 30 mg/kg GABA under fasting conditions, vs GABA just before feeding): less effective; decrease in insulin compared to control mice ([1]; 60 or 90 mg/kg GABA, over 9 weeks): 4 fold; mice that became insulin independent ([1]; GABA treated group (4 out of 8)): 50%; blood glucose average in mice not requiring insulin ([1]; on oral GABA alone): below 150 mg/dl; mean blood glucose ([1]; over 9 weeks, 60 or 90 mg/kg GABA with insulin): 310 mg/dL; average reduction in blood glucose levels from day 60 to day 120 ([5]; 30 mg/kg GABA PO QD): 32%; reduction in average blood glucose levels at day 120 compared to the pre-treatment average (day −10 through day 60) ([5]; 30 mg/kg GABA PO QD): 40%; overall improvement of mean 10 hour blood glucose ([5]; day 0 to last visit, without significant change in average insulin dosage): 33%; mean blood glucose over the 10 hour measurement period ([5]; seven dogs, last visit, GABA escalated 30, 60, 90 mg/kg, day 0 value 310 mg/dl): 209 mg/dL; fasting blood glucose control ([5]; six dogs, 30 mg/kg GABA PO QD from day 60, with insulin, 30 mg/kg): downward decrease in fasting blood glucose; also recorded: substantially improved; mean fructosamine level ([5]; six dogs, treatment days 60-120 with 30 mg/kg GABA vs pretreatment days 0-59 (p=0.007)): decline of the mean fructosamine level; C-peptide (area under the curve) [6]: dose dependent increase; insulin dose required over the course of treatment ([7]; 60 mg/kg GABA BID, insulin dosed to keep fasting blood glucose ≦200 (Ex. 2) or ≦150 mg/dl (Ex. 4)): declined markedly; also recorded: rapidly required less insulin; also recorded: significantly less insulin over time; lowering blood glucose levels and insulin requirements after onset of diabetes ([7]; 60 mg/kg GABA PO BID): effective treatment; fasting and fed blood glucose in mice that became insulin independent ([7]; 60 mg/kg GABA orally over approximately 11 weeks): completely restored to normal; number of insulin dependent diabetic mice that became insulin independent ([7]; 60 mg/kg GABA treatment): four; reduction in insulin dose to keep fasting blood glucose ≦150 mg/dl ([7]; all diabetic mice treated with 60 mg/kg GABA): ≥ 85%; decrease in average insulin requirement, of the maximum dose ([7]; eight diabetic mice, 60 mg/kg GABA BID): 85%; insulin required to maintain an average weekly blood glucose of 200 mg/dl ([7]; single mouse of FIG. 15, at sacrifice): 0.0025 units; insulin dose at sacrifice, of the original dose ([7]; single mouse of FIG. 15, diabetic 34 weeks, on insulin and GABA throughout): less than 1%; insulin requirement to maintain fasting blood glucose ≦150 mg/dl ([7]; three of the eight mice treated with GABA (FIG. 6)): eventually came to zero; change of plasma GABA levels at visit 14 ([8]; dose raised to 90 mg/kg): decreases two fold; increase of plasma GABA levels between visit 8 and visit 12 ([8]; oral GABA dose doubled (30 to 60 mg/kg)): ~80 fold

Which “average weight / lean body mass” value ([3]; FIGS. 3 and 4) does the source give for “Insulin: exogenous insulin given subcutaneously, 0.4 units just prior to consuming food [reference compound]” here?
The value was “increased body mass throughout the study”.

And the “Average Fasting Blood Glucose” value [4, 9]?
The value was 82 mg/dL.

And the “Average Fasting Blood Glucose” value ([4]; 15 weeks of age, treatment just before feeding)?
Its value is 114 mg/dL.

And the “Average Fasting Blood Glucose” value ([4]; 17 weeks of age, treatment just before feeding)?
Its value is 162 mg/dL.

What about the “Average Fasting Blood Glucose” value [4, 10] of the same compound?
The value was 134 mg/dL.

And the “Average Fasting Blood Glucose” value [4, 11]?
The value was 150 mg/dL.

What about the “Average Fasting Blood Glucose” value [4, 12] of the same compound?
The value was 188 mg/dL.

And the “Average Fasting Blood Glucose” value [4, 13]?
The value was 195 mg/dL.

What about the “Average Fasting Blood Glucose” value [4, 14] of the same compound?
Its value is 260 mg/dL.
